pIC50: −log10 of the molar value.
Biological target: interaction between p53 and MDM2 proteins (Homo sapiens, UniProt Q00987)
Assay: HTRF assay of inhibition of p53-MDM2 interaction (GST-MDM2 / biotinylated p53 peptide)
Assay type: binding
Conditions: 0.02% BSA
Protocol: The ability of the compounds to inhibit the interaction between p53 and MDM2 proteins was measured by an HTRF (homogeneous time-resolved fluorescence) assay in which recombinant GST-tagged MDM2 binds to a peptide that resembles the MDM2-interacting region of p53 (Lane et al.). Binding of GST-MDM2 protein and p53-peptide (biotinylated on its N-terminal end) is registered by the FRET (fluorescence resonance energy transfer) between Europium (Eu)-labeled anti-GST antibody and streptavidin-conjugated Allophycocyanin (APC).
Test is performed in black flat-bottom 384-well plates (Costar) in a total volume of […] containing:90 nM biotinylate peptide, 160 ng/ml GST-MDM2, 20 nM streptavidin-APC (PerkinElmerWallac), 2 nM Eu-labeled anti-GST-antibody (PerkinElmerWallac), 0.2% bovine serum albumin (BSA), 1 mM dithiothreitol (DTT) and 20 mM […] (TBS) buffer as follows: Add 10 uL of GST-MDM2 (640 ng/ml working solution) in reaction buffer to each well. Add 10 uL diluted compounds (1:5 dilution in reaction buffer) to each well, mix by shaking. Add 20 uL biotinylated p53 peptide (180 nM working solution) in reaction buffer to each well and mix on shaker. Incubate at 37° C. for 1 h. Add 20 uL streptavidin-APC and Eu-anti-GST antibody mixture (6 nM Eu-anti-GST and 60 nM streptavidin-APC working solution) in TBS buffer with 0.2% BSA, shake at room temperature for 30 minutes and read using a TRF-capable plate reader at 665 and 615 nm (Victor 5, Perkin ElmerWallac). If not specified, the reagents were purchased from Sigma Chemical Co.

Sequence of interaction between p53 and MDM2 proteins (Q00987 whole entry): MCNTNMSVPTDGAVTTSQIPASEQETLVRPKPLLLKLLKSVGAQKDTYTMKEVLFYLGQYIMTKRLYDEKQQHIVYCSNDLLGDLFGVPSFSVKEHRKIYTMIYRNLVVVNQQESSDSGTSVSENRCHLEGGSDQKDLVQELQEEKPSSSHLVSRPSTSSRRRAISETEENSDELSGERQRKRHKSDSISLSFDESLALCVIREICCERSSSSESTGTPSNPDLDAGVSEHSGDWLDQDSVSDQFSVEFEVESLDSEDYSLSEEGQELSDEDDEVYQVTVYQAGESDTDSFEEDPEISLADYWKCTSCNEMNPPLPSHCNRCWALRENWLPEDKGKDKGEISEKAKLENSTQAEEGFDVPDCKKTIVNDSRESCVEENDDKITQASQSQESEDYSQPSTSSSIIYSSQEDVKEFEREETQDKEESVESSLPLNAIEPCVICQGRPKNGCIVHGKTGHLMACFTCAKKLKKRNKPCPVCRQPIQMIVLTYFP

Structure (SMILES) | pIC50
Cc1ccc(F)cc1[C@H]1NC(=O)C=C(c2cccc(Cl)c2)[C@]12C(=O)Nc1cc(Cl)ccc12 [Example 6, chiral(2′R,3R)-6-chloro-4′-(3-chloro-phenyl)-2′-(5-fluoro-2-methyl-phenyl)-1′,3′-dihydrospiro[3H-indole-3,3′(2′H)-pyridine]-2,6′(1H)-dione] | 7.18
O=C1C=C(c2cccc(Cl)c2)[C@]2(C(=O)Nc3cc(Cl)ccc32)[C@@H](c2cc(Cl)ccc2OC2CCOCC2)N1 (racemic) [Example 12, racemic(2′R,3R)-6-chloro-4′-(3-chloro-phenyl)-2′-[5-chloro-2-(tetrahydro-pyran-4-yloxy)-phenyl]-1′,3′-dihydrospiro[3H-indole-3,3′-pyridine]-2,6′(1H)-dione] | 6.56
O=C1C=C(c2cccc(F)c2)[C@]2(C(=O)Nc3cc(Cl)ccc32)[C@@H](c2cc(Cl)ccc2OC2CCOCC2)N1 (racemic) [Example 16, racemic(2′R,3R)-6-chloro-2′-[5-chloro-2-(tetrahydro-pyran-4-yloxy)-phenyl]-4′-(3-fluoro-phenyl)-1′,3′-dihydrospiro[3H-indole-3,3′-pyridine]-2,6′(1H)-dione] | 6.32
Cc1ccc(F)cc1[C@H]1NC(=O)C=C(c2ccoc2)[C@]12C(=O)Nc1cc(Cl)ccc12 (racemic) [Example 32, racemic(2′R,3R)-6-chloro-2′-(5-fluoro-2-methyl-phenyl)-4′-(furan-3-yl)-1′,3′-dihydrospiro[3H-indole-3,3′(2′H)-pyridine]-2,6′(1H)-dione] | 5.28
Cc1ccc(F)cc1[C@H]1NC(=O)C=C(c2cccnc2)[C@]12C(=O)Nc1cc(Cl)ccc12 (racemic) [Example 40, racemic(2′R,3R)-6-chloro-2′-(5-fluoro-2-methyl-phenyl)-4′-(pyridin-3-yl)-1′,3′-dihydrospiro[3H-indole-3,3′(2′H)-pyridine]-2,6′(1H)-dione] | 5.19

— patent US8217051B2, “Spiroindolinone derivatives” (Hoffmann-La Roche Inc., priority 2009, dated 2012)
